Among the data in patent US11203587B2, “Thyroid hormone receptor beta agonist compounds” (Terns, Inc., priority 2018, dated 2021) are EC50 and THRβ-Selectivity values, retold here.

The target in one experiment is T1, THR alpha-LBD (Homo sapiens, UniProt P10827).
T1 construct: THR alpha-LBD (0.4 nM final concentration) or THR beta-LBD (1.0 nM final concentration) was added; purchased ThermoFisher
Briefly: LanthaScreen TR-FRET Thyroid Receptor alpha Coactivator Assay. The note with it: 2 hours incubation at room temperature, run in duplicate multiple times, average data, read-out: EC50 THRα-FRET. The class given is biochemical. The method, then:
Example B1: Time-Resolved Fluorescence Resonance Energy Transfer (TR-FRET) Assay for Thyroid Hormone Receptor Agonist Screening
LanthaScreen™ TR-FRET Thyroid Receptor alpha Coactivator Assay kit (ThermoFisher) and LanthaScreen™ TR-FRET Thyroid Receptor beta Coactivator Assay kit (ThermoFisher) were used for agonist compound screening. Compounds in DMSO were diluted using ECHO Liquid Handler (Labcyte Inc.) into 384 plates in 10-point 3-fold series in duplicate (5 micro M final top concentration). Buffer C (ThermoFisher) was added to each well before the 4× mixture of fluorescein-SCR2-2 coactivator (200 nM final concentration), Terbium-labeled anti-GST antibody (2 nM final concentration), and THR alpha-LBD (0.4 nM final concentration) or THR beta-LBD (1.0 nM final concentration) was added. After 2 hours incubation at room temperature in the dark, the TR-FRET signal was measured on an EnVision plate reader (PerkinElmer) with excitation at 340 nm and dual emission readout at 495 and 520 nm with the delay time of 100 micro second and the integration time of 200 micro second. The ratio of emission signal at 520 and at 495 was used to calculate EC50 using GraphPad Prism (GraphPad Software). […] Compounds' THR-beta selectivity values in Table 2 are derived from T3-selectivity normalized data.
(In general: TR-FRET usually uses a lanthanide donor and a delayed reading to cut background.)

In another experiment the target is T2, THR beta-LBD (Homo sapiens, UniProt P10828).
T2 construct: THR alpha-LBD (0.4 nM final concentration) or THR beta-LBD (1.0 nM final concentration) was added; purchased ThermoFisher
T2 sequence (P10828 217-461 limits assumed): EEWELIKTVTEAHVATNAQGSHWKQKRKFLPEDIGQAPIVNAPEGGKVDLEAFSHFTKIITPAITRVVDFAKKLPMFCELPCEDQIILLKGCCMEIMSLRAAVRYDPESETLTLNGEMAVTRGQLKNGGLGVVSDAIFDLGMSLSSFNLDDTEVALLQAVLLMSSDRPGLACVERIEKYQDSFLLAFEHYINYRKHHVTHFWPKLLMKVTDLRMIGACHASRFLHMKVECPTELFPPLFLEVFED
Briefly: LanthaScreen TR-FRET Thyroid Receptor beta Coactivator Assay. Type of experiment: biochemical. The note with it: for THRβ-Selectivity: THR beta over THR alpha, derived from T3-selectivity normalized data; for EC50: TR-FRET coactivator assay, 2 hours incubation at room temperature, run in duplicate multiple times, average data, read-out: EC50 THRβ-FRET. The method, then:
LanthaScreen™ TR-FRET Thyroid Receptor alpha Coactivator Assay kit (ThermoFisher) and LanthaScreen™ TR-FRET Thyroid Receptor beta Coactivator Assay kit (ThermoFisher) were used for agonist compound screening. […] Buffer C (ThermoFisher) was added to each well before the 4× mixture of fluorescein-SCR2-2 coactivator (200 nM final concentration), Terbium-labeled anti-GST antibody (2 nM final concentration), and THR alpha-LBD (0.4 nM final concentration) or THR beta-LBD (1.0 nM final concentration) was added.

Each structure is given as a SMILES string. A value given as a limit tells only on which side of the number the result lay.

T1 sequence (P10827 163-410 isoform P10827-2 limits assumed, other chains not shown): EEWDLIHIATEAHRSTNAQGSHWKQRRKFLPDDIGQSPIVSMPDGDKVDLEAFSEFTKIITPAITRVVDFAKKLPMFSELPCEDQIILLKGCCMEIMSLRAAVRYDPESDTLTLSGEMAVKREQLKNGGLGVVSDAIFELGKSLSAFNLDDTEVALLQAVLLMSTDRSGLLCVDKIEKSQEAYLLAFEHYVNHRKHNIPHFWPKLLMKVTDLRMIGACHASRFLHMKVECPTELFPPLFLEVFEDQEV

`CC(C)c1cc(C(=O)c2c(Cl)cc(-c3n[nH]c(=O)[nH]c3=O)cc2Cl)n[nH]c1=O` [Compound 8, 6-(3,5-dichloro-4-(5-isopropyl-6-oxo-1,6-dihydropyridazine-3-carbonyl)phenyl)-1,2,4-triazine-3,5(2H,4H)-dione]: on THR alpha-LBD, the EC50 was 3.67 µM. Moreover, on THR beta-LBD, the THRβ-Selectivity worked out at 9.5 and the EC50 is 1.45 µM.

Consider `CC(C)c1cc(Oc2c(Cl)cc(-c3nn(C)c(=O)[nH]c3=O)cc2Cl)nn(C)c1=O` [Compound 9, 6-(3,5-dichloro-4-((5-isopropyl-1-methyl-6-oxo-1,6-dihydropyridazin-3-yl)oxy)phenyl)-2-methyl-1,2,4-triazine-3,5(2H,4H)-dione], for which, at THR alpha-LBD, the EC50 was found to be 0.161 µM. Further, on THR beta-LBD, the THRβ-Selectivity stood at 25.5 and the EC50 stood at 0.0239 µM.

For the compound `CC(C)c1cc(C(=O)c2c(Cl)cc(-c3nn(C)c(=O)[nH]c3=O)cc2Cl)n[nH]c1=O` [Compound 13, 6-(3,5-dichloro-4-(5-isopropyl-6-oxo-1,6-dihydropyridazine-3-carbonyl)phenyl)-2-methyl-1,2,4-triazine-3,5(2H,4H)-dione], the EC50 on THR alpha-LBD is > 5 µM. On THR beta-LBD, the THRβ-Selectivity is >27.4 and the 50% effective concentration (EC50) amounted to 0.75 µM.

As for `CC(C)c1cc(Cc2c(Cl)cc(-c3n[nH]c(=O)[nH]c3=O)cc2Cl)n[nH]c1=O` [Compound 15, 6-(3,5-dichloro-4-((5-isopropyl-6-oxo-1,6-dihydropyridazin-3-yl)methyl)phenyl)-1,2,4-triazine-3,5(2H,4H)-dione], the EC50 is 3.34 µM at THR alpha-LBD and 0.381 µM at THR beta-LBD. The THRβ-Selectivity on THR beta-LBD was 31.2.

Turning to `CC(C)c1cc(Cc2c(Cl)cc(-c3nn(C)c(=O)[nH]c3=O)cc2Cl)n[nH]c1=O` [Compound 16, 6-(3,5-dichloro-4-((5-isopropyl-6-oxo-1,6-dihydropyridazin-3-yl)methyl)phenyl)-2-methyl-1,2,4-triazine-3,5(2H,4H)-dione], the EC50 on THR alpha-LBD stood at 1.21 µM. Also, on THR beta-LBD, the THRβ-Selectivity stood at 28.3 and the EC50 was 0.163 µM.

Consider `CC(C)c1cc(Cc2c(Cl)cc(-c3n[nH]c(=O)[nH]c3=O)cc2Cl)nn(C)c1=O` [Compound 17, 6-(3,5-dichloro-4-((5-isopropyl-1-methyl-6-oxo-1,6-dihydropyridazin-3-yl)methyl)phenyl)-1,2,4-triazine-3,5(2H,4H)-dione], for which the EC50 at THR alpha-LBD is 0.0996 µM. At THR beta-LBD, the THRβ-Selectivity is on record as 11.1 and the EC50 was found to be 0.0346 µM.

In the case of `CCn1nc(-c2cc(Cl)c(Oc3cc(C(C)C)c(=O)[nH]n3)c(Cl)c2)c(=O)[nH]c1=O` [Compound 19, 6-(3,5-dichloro-4-((5-isopropyl-6-oxo-1,6-dihydropyridazin-3-yl)oxy)phenyl)-2-ethyl-1,2,4-triazine-3,5(2H,4H)-dione], on THR alpha-LBD, the EC50 was > 5 µM. Further, on THR beta-LBD, the THRβ-Selectivity is listed as 13.9 and the EC50 came to 1.41 µM.

On to `CCOC(=O)Cn1nc(-c2cc(Cl)c(Oc3cc(C(C)C)c(=O)[nH]n3)c(Cl)c2)c(=O)[nH]c1=O` [Compound 20, ethyl 2-(6-(3,5-dichloro-4-((5-isopropyl-6-oxo-1,6-dihydropyridazin-3-yl)oxy)phenyl)-3,5-dioxo-4,5-dihydro-1,2,4-triazin-2(3H)-yl)acetate], for which, at THR alpha-LBD, the EC50 turned out to be 1.33 µM. Moreover, at THR beta-LBD, the THRβ-Selectivity is 2.7 and the concentration for a half-maximal effect (EC50) was 1.93 µM.

Take `CC(C)c1cc(Oc2c(Cl)cc(-c3nn(CC(F)(F)F)c(=O)[nH]c3=O)cc2Cl)n[nH]c1=O` [Compound 21, 6-(3,5-dichloro-4-((5-isopropyl-6-oxo-1,6-dihydropyridazin-3-yl)oxy)phenyl)-2-(2,2,2-trifluoroethyl)-1,2,4-triazine-3,5(2H,4H)-dione]: the half-maximal effective concentration (EC50) was > 5 µM on THR alpha-LBD and 2.88 µM at THR beta-LBD. Besides, at THR beta-LBD, the THRβ-Selectivity was >9.5.

`CC(C)c1cc(Oc2c(Cl)cc(-c3nn(CC#N)c(=O)[nH]c3=O)cc2Cl)n[nH]c1=O` [Compound 22, 2-(6-(3,5-dichloro-4-((5-isopropyl-6-oxo-1,6-dihydropyridazin-3-yl)oxy)phenyl)-3,5-dioxo-4,5-dihydro-1,2,4-triazin-2(3H)-yl)acetonitrile]: the EC50 on THR alpha-LBD was 3.44 µM. Also, on THR beta-LBD, the THRβ-Selectivity came to 12.9 and the EC50 amounted to 1.17 µM.

On to `CC(C)c1cc(Oc2c(Cl)cc(-c3nn(CC(F)F)c(=O)[nH]c3=O)cc2Cl)n[nH]c1=O` [Compound 23, 6-(3,5-dichloro-4-((5-isopropyl-6-oxo-1,6-dihydropyridazin-3-yl)oxy)phenyl)-2-(2,2-difluoroethyl)-1,2,4-triazine-3,5(2H,4H)-dione], for which the concentration giving a half-maximal response (EC50) on THR alpha-LBD came to 3.23 µM. In addition, at THR beta-LBD, the THRβ-Selectivity is recorded as 9.2 and the EC50 is 1.38 µM.

Consider `CC(C)c1cc(Oc2c(Cl)cc(-c3nn(CC(F)F)c(=O)[nH]c3=O)cc2Cl)nn(C)c1=O` [Compound 24, 6-(3,5-dichloro-4-((5-isopropyl-1-methyl-6-oxo-1,6-dihydropyridazin-3-yl)oxy)phenyl)-2-(2,2-difluoroethyl)-1,2,4-triazine-3,5(2H,4H)-dione], for which the EC50 at THR alpha-LBD was determined as 1.48 µM. For the same compound, at THR beta-LBD, the THRβ-Selectivity is recorded as 4.7 and the EC50 came to 1.19 µM.

Turning to `CC(C)c1cc(Oc2c(Cl)cc(-c3n[nH]c(=O)[nH]c3=O)c(F)c2Cl)nn(C)c1=O` [Compound 25, 6-(3,5-dichloro-2-fluoro-4-((5-isopropyl-1-methyl-6-oxo-1,6-dihydropyridazin-3-yl)oxy)phenyl)-1,2,4-triazine-3,5(2H,4H)-dione], the EC50 on THR alpha-LBD stood at 0.025 µM. Further, on THR beta-LBD, the THRβ-Selectivity was 4.4 and the EC50 is 0.0222 µM.

`CCC(CC)c1cc(Oc2c(Cl)cc(-c3nn(C)c(=O)[nH]c3=O)cc2Cl)n[nH]c1=O` [Compound 27, 6-(3,5-dichloro-4-((6-oxo-5-(pentan-3-yl)-1,6-dihydropyridazin-3-yl)oxy)phenyl)-2-methyl-1,2,4-triazine-3,5(2H,4H)-dione]: the EC50 at THR alpha-LBD is 1.75 µM. For the same compound, at THR beta-LBD, the THRβ-Selectivity is 33.9 and the EC50 amounted to 0.213 µM.

Consider `CCc1cc(Oc2c(Cl)cc(-c3nn(C)c(=O)[nH]c3=O)cc2Cl)n[nH]c1=O` [Compound 28, 6-(3,5-dichloro-4-((5-ethyl-6-oxo-1,6-dihydropyridazin-3-yl)oxy)phenyl)-2-methyl-1,2,4-triazine-3,5(2H,4H)-dione], for which the EC50 on THR alpha-LBD was determined as 3.44 µM; on THR beta-LBD it was 0.67 µM. Further, at THR beta-LBD, the THRβ-Selectivity is 19.2.

Take `CC(CO)c1cc(Oc2c(Cl)cc(-c3nn(C)c(=O)[nH]c3=O)cc2Cl)n[nH]c1=O` (stereo not drawn) [Compound 29, 6-(3,5-dichloro-4-((5-(1-hydroxypropan-2-yl)-6-oxo-1,6-dihydropyridazin-3-yl)oxy)phenyl)-2-methyl-1,2,4-triazine-3,5(2H,4H)-dione]: the half-maximal effective concentration (EC50) at THR alpha-LBD was determined as 4.04 µM. In addition, on THR beta-LBD, the THRβ-Selectivity is listed as 7.105 and the EC50 amounted to 2.07 µM.

As to `CCC(O)c1cc(Oc2c(Cl)cc(-c3nn(C)c(=O)[nH]c3=O)cc2Cl)n[nH]c1=O` (stereo not drawn) [Compound 30, 6-(3,5-dichloro-4-((5-(1-hydroxypropyl)-6-oxo-1,6-dihydropyridazin-3-yl)oxy)phenyl)-2-methyl-1,2,4-triazine-3,5(2H,4H)-dione], the EC50 on THR alpha-LBD was 1.31 µM. For the same compound, at THR beta-LBD, the THRβ-Selectivity worked out at 24.7 and the EC50 is 0.214 µM.

Regarding `CC(O)c1cc(Oc2c(Cl)cc(-c3nn(C)c(=O)[nH]c3=O)cc2Cl)n[nH]c1=O` (stereo not drawn) [Compound 31, 6-(3,5-dichloro-4-((5-(1-hydroxyethyl)-6-oxo-1,6-dihydropyridazin-3-yl)oxy)phenyl)-2-methyl-1,2,4-triazine-3,5(2H,4H)-dione], the EC50 at THR alpha-LBD turned out to be 2.67 µM; at THR beta-LBD, 0.987 µM. On THR beta-LBD, this compound had a THRβ-Selectivity of 14.4.

For the compound `CCC(C)c1cc(Oc2c(Cl)cc(-c3nn(C)c(=O)[nH]c3=O)cc2Cl)n[nH]c1=O` (stereo not drawn) [Compound 32, 6-(4-((5-(sec-butyl)-6-oxo-1,6-dihydropyridazin-3-yl)oxy)-3,5-dichlorophenyl)-2-methyl-1,2,4-triazine-3,5(2H,4H)-dione], the EC50 on THR alpha-LBD was 1.13 µM; at THR beta-LBD it was 0.231 µM. Also, at THR beta-LBD, the THRβ-Selectivity was found to be 20.9.

What is called EC50 is the concentration giving half of the maximal effect.
